Target: T1, recombinant human IL-8 type β receptor (Type II, permissive receptor) (Homo sapiens, UniProt P25025)
T1 construct: expressed in transfected cells; host or cells: Chinese hamster ovary (CHO) cells; membrane preparation
T1 sequence (P25025 1-360): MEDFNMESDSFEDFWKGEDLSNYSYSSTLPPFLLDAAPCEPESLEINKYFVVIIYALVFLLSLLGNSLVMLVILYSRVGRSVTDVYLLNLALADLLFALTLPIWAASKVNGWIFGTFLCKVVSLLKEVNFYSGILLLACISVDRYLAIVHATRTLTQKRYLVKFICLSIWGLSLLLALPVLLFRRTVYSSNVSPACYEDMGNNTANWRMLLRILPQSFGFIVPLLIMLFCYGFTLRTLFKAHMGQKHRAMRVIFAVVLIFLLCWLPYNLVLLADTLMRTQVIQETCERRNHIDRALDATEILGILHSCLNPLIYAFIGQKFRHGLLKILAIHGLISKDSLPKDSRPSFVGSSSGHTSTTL
Assay: IL-8 receptor binding assay, permissive model (125I IL-8 / 125I Gro-α, CHO membranes)
Conditions: recombinant receptor expressed in Chinese hamster ovary cell membranes, compound 0.01 nM to 100 uM
Procedure: The IL-8, and GRO-α chemokine inhibitory effects of compounds of the present invention were determined by the following in vitro assay:
[^125I] IL-8 (human recombinant) was obtained from Amersham Corp., Arlington Heights, Ill., with specific activity 2000 Ci/mmol. GRO-α was obtained from NEN-New England Nuclear. All other chemicals were of analytical grade. High levels of recombinant human IL-8 type α and β receptors were individually expressed in Chinese hamster ovary cells as described previously (Holmes, et al., Science, 1991, 253, 1278). The Chinese hamster ovary membranes were homogenized according to a previously described protocol (Haour, et al., J Biol Chem., 249 pp 2195-2205 (1974)). Except that the homogenization buffer was changed to 10 mM Tris-HCL, 1 mM MgS04, 0.5 mM EDTA (ethylene-diaminetetra-acetic acid), 1 mMPMSF (α-toluenesulphonyl fluoride), 0.5 mg/L Leupeptin, pH 7.5. Membrane protein concentration was determined using Pierce Co. micro-assay kit using bovine serum albumin as a standard. All assays were performed in a 96-well micro plate format. […] The filter was then dried and counted on the Betaplate liquid scintillation counter. […]

For “N-(2,4-Dichloro-3-carboxy)-N′-(2,3-dichlorophenyl)urea”, the “inhibition in the permissive models for IL-8 receptor inhibition” value was “inactive”.

From patent US20030225125A1, “IL-8 receptor antagonists” (SmithKline Beecham Corporation, priority 1999, published 2003)
